In test [1] the target is T1, cloned α1a-adrenoceptor subtype (Homo sapiens, UniProt P35348).
T1 construct: expressed in transfected cells
T1 sequence (P35348 1-466): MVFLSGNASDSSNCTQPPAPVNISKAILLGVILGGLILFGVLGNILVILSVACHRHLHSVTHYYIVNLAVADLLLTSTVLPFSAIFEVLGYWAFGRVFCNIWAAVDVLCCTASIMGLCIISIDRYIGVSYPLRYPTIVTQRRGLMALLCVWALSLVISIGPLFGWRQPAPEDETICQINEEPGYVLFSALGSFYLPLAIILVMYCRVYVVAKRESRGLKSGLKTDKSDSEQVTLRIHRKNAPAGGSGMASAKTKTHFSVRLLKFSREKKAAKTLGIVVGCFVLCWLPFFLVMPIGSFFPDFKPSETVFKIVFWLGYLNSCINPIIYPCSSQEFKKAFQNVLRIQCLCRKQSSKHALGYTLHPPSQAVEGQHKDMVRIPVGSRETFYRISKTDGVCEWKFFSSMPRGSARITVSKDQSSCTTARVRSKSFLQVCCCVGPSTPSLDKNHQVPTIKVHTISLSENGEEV
Description: Radioligand binding assay ([3H]prazosin), cloned α1a-adrenoceptor subtype. Particulars: read-out: Binding Affinity (Ki nM) α1a. As to the method:
(§1) Springer-Verlag, pp. 10-12). […] The results from these assays are used to calculate a measure of receptor selectivity, expressed as the ratio of affinities (Ki) for a given pair of receptors.
(§2) Determination of affinity for cloned subtypes of α1-adrenoceptor subtypes was performed in membranes from cells transfected by electroporation with DNA expressing the genes encoding each α1-adrenoceptor subtype.
(§3) Non-specific binding was determined in the presence of 10 μM phentolamine. Incubation was stopped by addition of ice-cold Tris buffer and rapid filtration through 0.2% polyethyleneimine-pretreated Schleicher & Schuell GF52 filters. […] Data were expressed as mean Ki.

The target of test [2] is T2, cloned α1d-adrenoceptor subtype (Homo sapiens, UniProt P25100).
T2 construct: expressed in transfected cells
T2 sequence (P25100 1-572): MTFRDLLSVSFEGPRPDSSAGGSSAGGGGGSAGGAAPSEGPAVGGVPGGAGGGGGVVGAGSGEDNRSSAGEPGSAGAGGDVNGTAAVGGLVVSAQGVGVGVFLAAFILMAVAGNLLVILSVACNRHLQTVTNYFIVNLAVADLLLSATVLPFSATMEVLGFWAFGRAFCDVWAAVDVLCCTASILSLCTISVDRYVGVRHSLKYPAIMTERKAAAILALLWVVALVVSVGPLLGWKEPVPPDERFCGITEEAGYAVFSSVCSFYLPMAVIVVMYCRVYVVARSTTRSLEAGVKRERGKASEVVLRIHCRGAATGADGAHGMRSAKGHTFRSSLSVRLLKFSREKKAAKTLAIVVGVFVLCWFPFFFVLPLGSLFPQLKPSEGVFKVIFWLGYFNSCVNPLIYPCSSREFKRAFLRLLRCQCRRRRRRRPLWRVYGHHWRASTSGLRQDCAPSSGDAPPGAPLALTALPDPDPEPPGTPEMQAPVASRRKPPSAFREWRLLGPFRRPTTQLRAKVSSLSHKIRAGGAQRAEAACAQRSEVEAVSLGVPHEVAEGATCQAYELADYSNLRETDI
Description: Radioligand binding assay ([3H]prazosin), cloned α1d-adrenoceptor subtype. Particulars: read-out: Binding Affinity (Ki nM) α1d. How it is done: as §1, §2, §3

The target of test [3] is T3, cloned α1b-adrenoceptor subtype (Homo sapiens, UniProt P35368).
T3 construct: expressed in transfected cells
T3 sequence (P35368 1-520): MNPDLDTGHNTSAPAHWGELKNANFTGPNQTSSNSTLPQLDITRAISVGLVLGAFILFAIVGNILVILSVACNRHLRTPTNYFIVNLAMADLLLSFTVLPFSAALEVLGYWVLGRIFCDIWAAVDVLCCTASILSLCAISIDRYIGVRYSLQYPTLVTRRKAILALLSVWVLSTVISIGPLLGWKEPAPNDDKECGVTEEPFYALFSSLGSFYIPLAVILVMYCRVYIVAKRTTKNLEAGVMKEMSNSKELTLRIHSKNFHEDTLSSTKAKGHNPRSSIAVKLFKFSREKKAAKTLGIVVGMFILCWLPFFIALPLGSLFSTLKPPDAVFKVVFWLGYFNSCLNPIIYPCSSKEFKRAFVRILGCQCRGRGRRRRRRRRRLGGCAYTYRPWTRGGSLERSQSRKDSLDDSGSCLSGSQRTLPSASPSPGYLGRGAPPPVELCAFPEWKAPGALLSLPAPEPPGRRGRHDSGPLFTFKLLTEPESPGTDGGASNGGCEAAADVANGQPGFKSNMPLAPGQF
Put plainly: Radioligand binding assay ([3H]prazosin), cloned α1b-adrenoceptor subtype. As to conditions: read-out: Binding Affinity (Ki nM) α1b. As to the method:
as §1, §2, §3

Test [4] has as its system conscious rats with partial urethral obstruction. Put plainly: Cystometry in conscious rats obstructed by partial urethra ligature (unstable-bladder contractions). In kind it is in vivo, rat. Particulars: for inhibition in vivo at 1 mg/kg / inhibition in vivo at 3 mg/kg: 2 min; for Amplitude of non-effective micturition contractions, After Treat. / Frequency (number) of non-effective micturition contractions, After Treat.: after treatment; for Activity as inhibitors of unstable-bladder contractions (in words): obstructed conscious rats, summary of Tables 1 and 2. The source says: A useful animal model system for measuring such pharmacological activity is, without limitation, cystometry in conscious rats with partial bladder-neck obstruction. […] This model is reported in the literature as related to LUTS occurring in patients having obstructive urethral syndromes (Michel, 2000, Drugs of Today. 386 (Supp. B2): 3-6)
In order to obtain a partial obstruction of the urethra, the method previously reported by Malgren (Nalgren et al., 1987, J. Urol. 137:1291-1294; 1988, Neurourol. Urodyn. 6:371), was followed with minor modifications (Guarneri et al., 1991, Pharmacol. Res. 24:263).
Female rats of the Sprague-Dawley strain [Crl:CD(SD)BR, from Charles River Italia, Calco, Como, Italy] weighing 225-275 g were used. The animals were maintained in constant temperature and humidity conditions, on a forced 12-hour light-dark cycle and with food and water ad libitum for at least one week before the experiment.
After being anaesthetized with 3 ml/kg i.p. equitensin (pentobarbital 1.215 g, chloral hydrate 5.312 g, magnesium sulphate 2.657 g, ethanol 12.5 ml, propylene glycol 49.5 ml, distilled water to 125 ml of final volume), the rats were placed in a supine position and the bladder and urethra were exposed via an incision in the shaven abdomens and gently pulling away the muscle portion. The urethra was cannulated with a polyethylene tube with an outside diameter of 1.22 mm, and the urinary bladder was then emptied and, via the cannula introduced through the urethra, filled with physiological saline. A silk (Ethicon 3/0) ligature was placed around the urethra with the cannula inside and the intraurethral cannula was then removed. The abdominal incision was sutured and, immediately after the operative procedure, antibiotic medication (penicillin G 200 000 I.U./kg i.p. and streptomycin 260 mg/kg i.p.) was performed.
Three weeks after the procedure for partially obstructing the urethra, the animals were prepared for cystometry by surgical insertion into the bladder of a catheter, through which the bladder was gradually filled.
The rats, anaesthetised with equitensin 3 ml/kg i.p., were placed in a supine position and, via an incision of about 10 mm in the abdominal wall, the urinary bladder was exposed and gently freed from surrounding tissues.
The urinary bladder was emptied manually and cannulated, via a small incision at the bladder top, with a polyethylene cannula (type PE-50, 0.58 mm I.D. ×0.96 mm O.D.), which was permanently secured to the bladder with silk thread.
The cannula was exposed through a subcutaneous tunnel in the retroscapular area, where it was fastened with a plastic adapter, in order to avoid the risk of removal by the animal. After washing the urinary bladder with physiological saline, the catheter was sealed using a small flame and the abdominal incision was sutured.
To allow evaluation of the effect of a test compound after intravenous administration, the jugular vein was cannulated with a polyethylene cannula (type PE-50, 0.58 mm I.D.×0.96 mm O.D.) filled with heparinised physiological saline. As for the bladder catheter, this cannula, too, was exteriorised, secured and sealed in the retroscapular area.
Two days after the operation, the rats, fasted overnight, were placed in Bollman's cages or in Bollman's cages modified so as to have an opening in the bottom to allow collection of urinated fluid.
After an adaptation period of 20 minutes, the free end of the bladder cannula was connected to a pressure transducer and a special apparatus which allowed infusion into the urinary bladder of physiological saline at 37° C. at a constant rate of 10 ml/hour. Intravesical pressure changes caused by bladder filling were recorded by the pressure transducer which was connected to a recording polygraph.
From the cystometrograms, the frequency and mean amplitude of spontaneous bladder contractions not inducing micturition, termed “unstable-bladder contractions” (UBC), within 2 minutes prior to micturition were evaluated. […]

The next test relates to LUTS. As to conditions: LUTS secondary to BPH; relaxing effects on prostate smooth muscle were present; cited from earlier work.
Where [5] appears, read: cloned receptor, cell membranes, 0.2 nM [3H]prazosin, mean Ki.
The mark [6] stands for this setting: Rattus norvegicus, read-out: % inhibition of amplitude of non-effective micturition contractions.
Setting [7] is: Rattus norvegicus, read-out: % inhibition of frequency of non-effective micturition contractions.
[8] abbreviates: obstructed rat, 1 mg/kg, 2 minutes before micturition, read-out: % inhibition of amplitude of non-effective micturition contractions.
[9] abbreviates: obstructed rat, 1 mg/kg, 2 minutes before micturition, read-out: % inhibition of frequency of non-effective micturition contractions.

The text below walks through data of US20020183290A1, “Adrenergic receptor antagonists selective for both alpha1A-and alpha1D-subtypes and uses therefor” (Recordati S.A., Chemical and Pharmaceutical Company, priority 2001, published 2002).

Read-outs that look alike come from different tables or passages of the source.

`Cc1onc(-c2ccccc2)c1C(=O)NCCCN1CCN(c2cc(F)ccc2OCC(F)(F)F)CC1` [Compound C, N-{3-[4-[5-fluoro-2-(2,2,2-trifluoroethoxy)phenyl]-1-piperazinyl]propyl}-3-phenyl-5-methylisoxazole-4-carboxamide]: the Ki is 0.05 nM in test [1] and 0.33 nM in test [2].

For `Cc1onc(-c2ccccc2)c1C(=O)NCCCN1CCN(c2ccc(F)cc2OCC(F)(F)F)CC1` [Rec 27/0110], the Ki in test [1] turned out to be 0.35 nM; in test [3] (setting [5]), 69 nM; in test [2], 18.9 nM. In addition, the inhibition in vivo at 1 mg/kg in test [4] (setting [6]) was 21%; in test [4] (setting [7]), 27%. Moreover, the inhibition in vivo at 3 mg/kg is 53% in test [4] (setting [6]) and 49% in test [4] (setting [7]). In addition, the entries for the “Amplitude of non-effective micturition contractions, After Treat.” value in test [4] (1.0 mg/kg) and in test [4] (3.0 mg/kg) were 6.0 ± 1.4 mmHg and 2.3 ± 0.8 mmHg, respectively. For the same compound, the “Frequency (number) of non-effective micturition contractions, After Treat.” value is 4.4 ± 0.8 in test [4] (1.0 mg/kg) and 2.2 ± 0.7 in test [4] (3.0 mg/kg). The “Activity as inhibitors of unstable-bladder contractions (in words)” value (shortened to “Activity as inhibitors”) in test [4] is on record as “poorly active”.

As to `COc1ccccc1N1CCN(CCCNC(=O)c2cccc3c(=O)c(C)c(-c4ccccc4)oc23)CC1` [Rec 15/2739], in test [4] (setting [6]), the inhibition in vivo at 1 mg/kg came out at 29%. In test [4] (setting [7]), the inhibition in vivo at 1 mg/kg turned out to be 28%. In test [4] (1.0 mg/kg), the “Amplitude of non-effective micturition contractions, After Treat.” value is reported as 7.3 ± 1.3 mmHg and the “Frequency (number) of non-effective micturition contractions, After Treat.” value amounted to 4.8 ± 0.2. For the same compound, the “Activity as inhibitors” value in test [4] is “poorly active”. For the same compound, in the test on LUTS, the “Relief of LUTS in clinical trial” value is on record as “did not result in relief of LUTS”.

Consider `Cc1onc(-c2ccccc2Cl)c1C(=O)NCCCN1CCN(c2ccccc2OCC(F)(F)F)CC1` [Compound D, 3-(2-chlorophenyl)-5-methyl-N-{3-[4-[2-(2,2,2-trifluoroethoxy)phenyl]-1-piperazinyl]propy}isoxazole-4-carboxamide], for which the Ki in test [1] turned out to be 0.07 nM; in test [3] it was 14.1 nM; in test [2], 0.49 nM. The inhibition in vivo at 1 mg/kg in test [4] (setting [8]) came to 73%; in test [4] (setting [9]), 68%. The “Amplitude of non-effective micturition contractions, After Treat.” value in test [4] (1.0 mg/kg) was determined as 2.1 ± 0.7 mmHg. For the same compound, in test [4] (1.0 mg/kg), the “Frequency (number) of non-effective micturition contractions, After Treat.” value is given as 1.7 ± 0.8. Further, the “Activity as inhibitors” value in test [4] is given as “more potent”.

Turning to `COc1ccc(Cl)cc1N1CCN(CCCNC(=O)c2c(-c3ccccc3)noc2C)CC1` [Compound B, N-{3-[4-(5-Chloro-2-methoxyphenyl)-1-piperazinyl]propyl}-5-methyl-3-phenylisoxazole-4-carboxamide], the Ki in test [1] was found to be 0.8 nM; in test [3] (setting [5]) it was 23.6 nM; in test [2] it was 2.7 nM. Moreover, the results for the inhibition in vivo at 1 mg/kg in test [4] (setting [8]) and in test [4] (setting [9]) were 44% and 49%, respectively. In addition, the “Amplitude of non-effective micturition contractions, After Treat.” value in test [4] (1.0 mg/kg) came out at 4.2 ± 1.0 mmHg. For the same compound, in test [4] (1.0 mg/kg), the “Frequency (number) of non-effective micturition contractions, After Treat.” value amounted to 3.0 ± 0.7. Moreover, the “Activity as inhibitors” value in test [4] is “more potent”.
